# Assay: Particle size distribution of precipitated cilostazol particles
# Type: physicochemical
# Conditions: filtered, dried
# Protocol: A hot solution (70-75° C.) of cilostazol (23 g) in 1-methyl-2-pyrrolidinone (69 mL) was slowly added over a period of 5-10 min into water (345 mL) at 0-5° C. with stirring. The suspension was stirred at 0-5° C. for 1-2 hrs, filtered and rinsed with water (40 mL) and methanol (20 mL). The solid was dried under vacuum at 55-60° C. to give 22.1 g (yield 96%) cilostazol as a white powder. Particle size distribution: d(0.1)=0.71 micrometres, d(0.5)=5.94 mircrometres, d(0.9)=30.59 micrometres.
# A hot solution (70-75° C.) of cilostazol (20 g) in 1-methyl-2-pyrrolidinone (40 mL) was slowly added over a period of 5-10 min into toluene (250 mL) at 0-5° C. with stirring. The suspension was stirred at 0-5° C. for 1-2 hrs, filtered and rinsed with toluene (100 mL). The solid was dried under vacuum at 55-60° C. to give 18.2 g (yield 91%) cilostazol as a white powder. Particle size distribution: d(0.1)=0.80 micrometres, d(0.5)=3.90 mircrometres, d(0.9)=25.56 micrometres.
# [1] = Example 2: hot 1-methyl-2-pyrrolidinone solution added into water at 0-5° C.
# [2] = Example 3: hot 1-methyl-2-pyrrolidinone solution added into toluene at 0-5° C.
structure (smiles),measurement,setting,value
"O=C1CCc2cc(OCCCCc3nnnn3C3CCCCC3)ccc2N1 [cilostazol, 6-[4-(1-cyclohexyl-1H-tetrazol-5-yl)butoxy]-3,4-dihydro-2(1H)-quinolinone]",Particle size distribution d(0.1),[1],0.71 micrometres
same,Particle size distribution d(0.5),[1],5.94 mircrometres
same,Particle size distribution d(0.9),[1],30.59 micrometres
same,Particle size distribution d(0.1),[2],0.80 micrometres
same,Particle size distribution d(0.5),[2],3.90 mircrometres
same,Particle size distribution d(0.9),[2],25.56 micrometres

# Source: patent US20070105898A1, “Process for the production of cilostazol” (Apotex Pharmachem Inc., priority 2005, published 2007)
